Where “and” joins values, the source holds several entries; their conditions need not be identical. Equal values may be shown once. Entries after “also recorded” stand apart in the source; their conditions may differ. Read-outs that look alike come from different tables or passages of the source.
Experiments:
[1] = design: method as in PMID 25377318; settings: Western patients, cited from earlier work
[2] = Plasma PK of ixazomib given with lenalidomide–dexamethasone, phase 1 study in East Asian patients with RRMM (LC/MS/MS, non-compartmental analysis); type: in vivo, human; settings: for Accumulation ratio: day 15 AUC0–168/day 1 AUC0–168; for DN AUC0–168 / DN C max: dose-normalized; for Tmax / half-life / Cmax / AUC(0-t): human, plasma; for AUC(0-t): read-out: AUC0–168
Experimental: Plasma PK parameters were calculated for patients in the safety population following administration of ixazomib on cycle 1 day 1 and/or cycle 1 day 15 provided sufficient concentration–time data were available, the patient had received the protocol-specified ixazomib dosing regimen during cycle 1, and no excluded concomitant medications were received during the PK sampling period. PK parameters were estimated using non-compartmental analysis methods from the ixazomib concentration versus time data. The analyses were performed using Phoenix WinNonlin version 6.2 (Pharsight, Princeton, NJ). PK parameters were summarized, as appropriate, using descriptive statistics. DN AUC data in East Asian patients were compared with data for Western patients, pooled from three phase 1/2 trials of patients with RRMM (NCT00963820), NDMM (NCT01217957), and relapsed/refractory AL amyloidosis (NCT01318902).

[3] = design: method as in PMID 24904120, PMID 25456369; settings: Western patients, pooled from three studies, single agent or with lenalidomide–dexamethasone, cited from earlier work
[4] = ixazomib with lenalidomide and dexamethasone; Western patients with NDMM; cited from earlier work
[5] = cycle 1 day 1, Chinese, geometric mean (% CV)
[6] = cycle 1 day 1, Korean, geometric mean (% CV)
[7] = cycle 1 day 1, Other, geometric mean (% CV)
[8] = cycle 1 day 15, Chinese, geometric mean (% CV)
[9] = cycle 1 day 15, Korean, geometric mean (% CV)
[10] = cycle 1 day 15, Other, geometric mean (% CV)
[11] = po, cycle 1 day 1, Chinese, geometric mean (% CV), 4.0 mg oral + lenalidomide–dexamethasone
[12] = po, cycle 1 day 1, Korean, geometric mean (% CV), 4.0 mg oral + lenalidomide–dexamethasone
[13] = po, cycle 1 day 1, Other, geometric mean (% CV), 4.0 mg oral + lenalidomide–dexamethasone
[14] = po, cycle 1 day 1, Overall, geometric mean (% CV), 4.0 mg oral + lenalidomide–dexamethasone
[15] = po, cycle 1 day 15, Chinese, geometric mean (% CV), 4.0 mg oral + lenalidomide–dexamethasone
[16] = po, cycle 1 day 15, Korean, geometric mean (% CV), 4.0 mg oral + lenalidomide–dexamethasone
[17] = po, cycle 1 day 15, Other, geometric mean (% CV), 4.0 mg oral + lenalidomide–dexamethasone
[18] = po, cycle 1 day 15, Overall, geometric mean (% CV), 4.0 mg oral + lenalidomide–dexamethasone

CC(C)C[C@H](NC(=O)CNC(=O)c1cc(Cl)ccc1Cl)B(O)O [ixazomib]
MTD [1]: 2.97 mg/m^2 | MTD, equated to fixed dose ([1]; equates to 2.97 mg/m^2): 5.5 mg | difference in geometric mean DN AUC0–168, East Asian vs Western patients (higher) ([2]; day 1 of dosing, 194 vs 152 ng*h/mL/mg): 28% | difference in geometric mean DN AUC0–168, East Asian vs Western patients (higher) ([2]; day 15, 401 vs 269 ng*h/mL/mg): 49% | Accumulation ratio ([2]; Chinese, geometric mean (% CV)): 2.38 (30) | Accumulation ratio ([2]; Korean, geometric mean (% CV)): 2.34 (40) | Accumulation ratio ([2]; Other, geometric mean (% CV)): 2.56 (33) | DN AUC0–168 [2, 5]: 233 (83) h*ng/mL/mg | DN C max [2, 5]: 12.6 (102) ng/mL/mg | DN AUC0–168 [2, 6]: 157 (47) h*ng/mL/mg | DN C max [2, 6]: 5.53 (99) ng/mL/mg | DN AUC0–168 [2, 7]: 180 (63) h*ng/mL/mg | DN C max [2, 7]: 8.93 (118) ng/mL/mg | DN AUC0–168 ([2]; cycle 1 day 1, Overall East Asian, geometric mean (% CV)): 194 [78 % CV] h*ng/mL/mg and 194 (78) h*ng/mL/mg | DN C max ([2]; cycle 1 day 1, Overall, geometric mean (% CV)): 8.45 (115) ng/mL/mg | DN AUC0–168 [2, 8]: 438 (39) h*ng/mL/mg | DN C max [2, 8]: 12.6 (71) ng/mL/mg | DN AUC0–168 [2, 9]: 362 (49) h*ng/mL/mg | DN C max [2, 9]: 9.51 (67) ng/mL/mg | DN AUC0–168 [2, 10]: 383 (81) h*ng/mL/mg | DN C max [2, 10]: 10.6 (97) ng/mL/mg | DN AUC0–168 ([2]; cycle 1 day 15, Overall East Asian, geometric mean (% CV)): 401 [48 % CV] h*ng/mL/mg and 401 (48) h*ng/mL/mg | DN C max ([2]; cycle 1 day 15, Overall, geometric mean (% CV)): 11.0 (72) ng/mL/mg | Tmax ([2]; oral, days 1 and 15 of cycle 1, East Asian patients, with lenalidomide–dexamethasone, read-out: median time to maximum plasma concentration): 1.5 to 2 h | half-life ([2]; oral, geometric mean, after multiple dosing, overall East Asian patients, read-out: terminal half-life (converted)): 146 h | half-life ([2]; oral, terminal disposition phase, cycle 1 day 15, Chinese, geometric mean (% CV), read-out: t1/2 (converted)): 148 h | half-life ([2]; oral, terminal disposition phase, cycle 1 day 15, Korean, geometric mean (% CV), read-out: t1/2 (converted)): 145 h | half-life ([2]; oral, terminal disposition phase, cycle 1 day 15, Other, geometric mean (% CV), read-out: t1/2 (converted)): 148 h | half-life ([2]; oral, terminal disposition phase, cycle 1 day 15, Overall, geometric mean (% CV), read-out: t1/2 (converted)): 147 h | Cmax [2, 11]: 50.6 ng/mL | AUC(0-t) [2, 11]: 933 ng·h/mL | Tmax ([2]; po, cycle 1 day 1, Chinese, median (range), 4.0 mg oral + lenalidomide–dexamethasone, read-out: T max): 1.04 h | Cmax [2, 12]: 22.1 ng/mL | AUC(0-t) [2, 12]: 630 ng·h/mL | Tmax ([2]; po, cycle 1 day 1, Korean, median (range), 4.0 mg oral + lenalidomide–dexamethasone, read-out: T max): 1.95 h | Cmax [2, 13]: 35.7 ng/mL | AUC(0-t) [2, 13]: 720 ng·h/mL | Tmax ([2]; po, cycle 1 day 1, Other, median (range), 4.0 mg oral + lenalidomide–dexamethasone, read-out: T max): 1.75 h | Cmax [2, 14]: 33.8 ng/mL | AUC(0-t) [2, 14]: 776 ng·h/mL | Tmax ([2]; po, cycle 1 day 1, Overall, median (range), 4.0 mg oral + lenalidomide–dexamethasone, read-out: T max): 1.5 h | Cmax [2, 15]: 50.3 ng/mL | AUC(0-t) [2, 15]: 1750 ng·h/mL | Tmax ([2]; po, cycle 1 day 15, Chinese, median (range), 4.0 mg oral + lenalidomide–dexamethasone, read-out: T max): 2 h | Cmax [2, 16]: 38 ng/mL | AUC(0-t) [2, 16]: 1450 ng·h/mL | Tmax ([2]; po, cycle 1 day 15, Korean, median (range), 4.0 mg oral + lenalidomide–dexamethasone, read-out: T max): 2 h | Cmax [2, 17]: 42.4 ng/mL | AUC(0-t) [2, 17]: 1530 ng·h/mL | Tmax ([2]; po, cycle 1 day 15, Other, median (range), 4.0 mg oral + lenalidomide–dexamethasone, read-out: T max): 1.25 h | Cmax [2, 18]: 43.9 ng/mL | AUC(0-t) [2, 18]: 1610 ng·h/mL | Tmax ([2]; po, cycle 1 day 15, Overall, median (range), 4.0 mg oral + lenalidomide–dexamethasone, read-out: T max): 2 h | DLT-evaluable patients experiencing DLTs (cycle 1, 4.0 mg ixazomib with lenalidomide–dexamethasone): 2 of 24 | dose-limiting toxicities in the first six patients (starting dose 4.0 mg ixazomib, cycle 1, with lenalidomide–dexamethasone): No dose-limiting toxicities; also recorded: no DLTs | recommended phase 2/3 dose (RP2/3D) (weekly oral ixazomib with lenalidomide–dexamethasone, East Asian patients with RRMM): 4.0 mg | geometric mean DN AUC0–168 ([3]; day 1 of dosing): 152 [95 % CV] ng*h/mL/mg | geometric mean DN AUC0–168 ([3]; day 15): 269 [44 % CV] ng*h/mL/mg | recommended phase 2/3 dose (RP2/3D) [4]: 4.0 mg

Reference: paper PMC4559079 (Journal of Hematology & Oncology, 2015)
